Assay results as given in patent US5358936A, “Anionic furanose derivatives, methods of making and using the same” (Gordon; Paul, priority 1991, dated 1994).
Where “and” joins values, the source holds several entries; their conditions need not be identical. Equal values may be shown once. Entries after “also recorded” stand apart in the source; their conditions may differ. Where a name gives a salt, the structure may show the parent alone. Each block holds one compound with its values, some of them ahead of it.

Columns and labels:
[1] = test system: neutrophils; assay: Microscopic examination of neutrophils for cytotoxicity (Example 24); type: cell-based, mouse
[2] = test system: rat paw; assay: Post-ischemic reperfusion paw swelling (Example 22); type: in vivo, Sprague Dawley male rats; conditions: study C, 0.2 mg/kg i.p.
Description: This important disease model is used to evaluate aspects of tissue injury that occur in heart attack, or myocardial infarction, and stroke. Under these conditions, a significant period of injury can occur after blood flow has been restored, during the period of reperfusion.
To produce ischemia, blood flow to the left hind foot was largely interrupted by application of a tourniquet made up of two size 18 rubber bands wound eight times around the leg just behind the heel. […] Both application and removal of tourniquet were carried out under ether anesthesia. Injury was equated with organ swelling, which was assayed by measurement of the dorsoventral foot diameter with a Schnelltaster caliper, just before application of the tourniquet and at various times following tourniquet removal, during the reperfusion period.
Rats employed were Sprague Dawley males, weighing 240-280 grams. Drug comparisons were made here employing measurements 30 minutes into the reperfusion period. The widely studied drug allopurinol, a xanthine oxidase inhibitor and a free radical scavenging agent, used in the treatment of gout, and widely used to suppress experimental post-ischemic reperfusion injury was used as an experimental treatment standard. In studies below, allopurinol and all new drugs were given intraperitoneally 45-60 minutes prior to application of the tourniquet. Data are reported as the mean swelling (Mn)±standard error (SE). […] Group n is 5 or 6.
In another study, drug comparisons were made at various times after the reperfusion period. In this study, control and drug treatment groups were as above.

[3] = test system: peritoneal neutrophils; assay: In vitro neutrophil chemotaxis toward zymosan-activated rat serum (Example 24); type: cell-based, mouse; conditions: for IC50 / inhibition at 1 µg/mL / inhibition at 10 µg/mL / inhibition at 0.1 µg/mL: Mus musculus, Neutrophil; for IC50: 6 h, 20 percent zymosan-activated rat serum, six hours, 37° C., read-out: ID50 (molar concentration that inhibited chemotaxis by 50 percent); for inhibition at 1 µg/mL / inhibition at 10 µg/mL / inhibition at 0.1 µg/mL: read-out: Percent Inhibition of chemotaxis; for inhibition at 10 µg/mL: dose 10.0 μg/ml; for inhibition at 0.1 µg/mL: dose 0.1 μg/ml
Experimental: In vitro neutrophil chemotaxis studies were carried out by standard methods, as follows:
Mice were injected with complete Freund's adjuvant (CFA) and peritoneal cells, principally neutrophjls (>90 percent), were reproved from the mice 24 hours thereafter. Blind-well chemotactic chambers (Nucleopore Corp., Pleasanton, Calif.) were utilized.
Medium (RPMI 1640 plus 10 percent fetal calf serum) or medium plus 20 percent zymosan-activated rat serum (ZAS) was added to the lower compartment of each chamber. A nucleopore filter (8 μm pore size) was placed between compartments and 1×10^5 peritoneal neutrophils (above) suspended in medium were placed in the upper compartment. Chambers were incubated for six hours, after which time the filters were removed and stained with Giemsa stain. The number of cells on the lower surface of the filter was counted under a microscope. Treatment groups were assayed in duplicate.
The studies were carried out more specifically as follows:
Zymosan (Sigma Chemical Co., St. Louis, Mo.) was mixed with rat serum for one hour at 37° C. at 1 milligram (mg)/ml. The resulting chemoattractant composition was filtered, aliquotted and stored frozen at -70° C. prior to use.
The above chemoattractant composition was used as a 20 percent v/v solution in medium.
The chemotaxis chambers were arranged as follows:
The chambers were incubated at 37° C. for six hours, after which the chambers were dismantled, and the filters removed and treated as follows:
a) The filters were immersed in Giemsa stain diluted 1:50 for 30-45 minutes.
b) The stained filters were rinsed gently in distilled water for 3-5 minutes.
c) The stained, rinsed filters were air dried without blotting.
Several compounds described herein and control compounds ("drug", above) were examined at various concentrations, in duplicate. The molar concentration of a drug that inhibited the observed chemotaxis by 50 percent, defined as the ID50 value, was determined as shown below.

[4] = test system: foot pad; assay: Inflammation provoked by carrageenan injection (Example 25); type: in vivo, mice; conditions: subcutaneous; ibuprofen 50 mg/kg, Compound III 30 mg/kg; not significant
[5] = test system: inflammation in experimental allergic encephalomyelitis; conditions: Willenborg et al. (1989); cited from earlier work
[6] = test system: focal submucosal lesions; assay: Ethanol-induced gastric focal lesions (Example 33); type: in vivo, rat
Experimental: At three hours after ethanol administration, this drug continued to suppress ethanol-induced focal lesions (-57 percent).
A suspension of 25 mg/kg sucralfate+25 mg/kg Compound III:Al in combination was given as a pretreatment administration to another group in the same study. The combination produced an unanticipated augmentation of therapeutic effect against ethanol-induced focal submucosal lesions (-90 percent) at three hours post-ethanol administration. The same interactive phenomenon was also observed when Compound III was used, rather than Compound III:Al.

[7] = test system: gastric mucosal ulcers; assay: Healing of established gastric ulcers induced by acetic acid (Example 34); type: in vivo, rat
Description: To evaluate drug effects on peptic ulcer healing, gastric mucosal ulcers were produced in rats, after a two day fast, by a modification of the method of Konturek et al., Am. J. Med., Vol. 86, 6A, 32 (1989). Briefly, to produce a mucosal ulcer, Konturek et al. applied 100 percent acetic acid for twenty seconds to the stomach serosa through a small cylindrical mold, 4.2 mm in diameter. The aim here was to make ulceration more severe than was achieved by the Konturek group so that spontaneous healing would not be as pronounced as they found in the controls, over an experimental period of seven days.
All drugs studied were suspended in 0.25 percent (by weight) aqueous methylcellulose solution as the vehicle or diluent, which also served as the placebo given to the controls. Treatments were given once daily by oral gavage, in one milliliter of vehicle. The treatment groups were: Control; Sucralfate at 200 mg/kg; and Compound III:Al at 200 mg/kg.
At the end of the treatment period, stomachs were removed, ulcer diameters were measured, and determination was made of the presence or absence of perforation.
A second study was carried out in which ulcer evolution was permitted to take place over five additional days, in the absence and presence of treatment with Sucralfate.
A third study was begun one day following the start of study 2, in which ulcer evolution was allowed to take place over five additional days, in the absence and presence of treatment with Compound III:Al.
In another study, after ulcer induction as above, a different dosage protocol was employed at 24 hours to evaluate the interaction of Compound III and orally administered sucralfate on ulcer healing. […] Here, daily drug doses of the following were used: (a) sucralfate at 200 mg/kg, alone and (b) in combination with 80 mg/kg Compound III given by mouth at -45 minutes, and, in a third group, (c) in combination with 10 mg/kg Compound III given IV also at -45 minutes. In this interaction study, drug treatment was continued for three and not five days, as was the case for the above studies, followed by passage of two additional non-treatment days before sacrifice of animals for evaluation of stomach ulcer area and perforation.
Data from all ulcer-healing studies employing a drug dosage of 200 mg/kg and the same ulcerogenesis protocol were pooled as to the frequency of gastric perforation observed on day five, not shown separately, with the day six perforation data shown above.

[8] = Solubility / dissolution in acid, water and 20 percent methanol; type: physicochemical; conditions: pH 1.2; Compound III:Al 2.5 mg/ml
[9] = test system: focal submucosal lesions; assay: Ethanol-induced gastric focal lesions (Example 33); type: in vivo, rat; conditions: one hour post-ethanol, 50 mg/kg
[10] = Dissolution and buffering of suspensions, HCl titration (Example 16)
Description: Note that the term "apparent pK" in this context is meant to encompass the maximization of buffering that come both from solid-state dissolution and its titration as solute.

[11] = test system: mouse blood coagulation
Experimental: To assess the effect on coagulation, if any, of a compound of the invention, a comparative evaluation was made using mouse blood.
One ml of freshly drawn mouse blood was added to each tube, and the tube contents were mixed. The clotting time was then noted for each tube, and the results are as shown below:

[12] = three hours post-ethanol, 50 mg/kg, combination 25 + 25 mg/kg

Compound: O=P(O)(O)OC[C@H]1O[C@H](OP(=O)(O)O)[C@@H](O)[C@@H](O)[C@@H]1O [Mannose-1,6-diphosphate]
effect on inflammation in EAE, in words [5]: less effective than mannose-6-phosphate

Compound: O=P(O)(O)OC[C@H]1OC(O)[C@@H](O)[C@@H](O)[C@@H]1O (stereo partly drawn) [Mannose-6-phosphate]
effect on inflammation in EAE, in words [5]: useful in treating inflammation

Compound: O=P(O)(O)OC[C@H]1OC(O)(COP(=O)(O)O)[C@@H](O)[C@@H]1O (stereo partly drawn) [fructose-1,6-diphosphate]
effect on inflammation in EAE, in words [5]: less effective than mannose-6-phosphate

Compound: Aluminum Complex of 1,2-O-(1-Isopropylidene)-3,5,6-Tri-O-Sulfo-D-Glucofuranose [Compound III:Al]
effect on ethanol-produced gastric pathology, in words ([6]; pretreatment 50 mg/kg one hour before ethanol): inhibited all focal lesions provoked by ethanol after one hour without suppressing large-vessel vasodilation
change in focal lesions versus control [6, 12]: -57%
change in focal lesions versus control, study employing Compound III [6, 12]: -33%
Focal Lesions per Stomach, study employing Compound III ([6]; three hours post-ethanol, 50 mg/kg, combination 25 + 25 mg/kg, control 2.25 ± 0.98): 1.50 + 0.76 per Stomach
Focal Lesions per Stomach ([6]; three hours post-ethanol, 50 mg/kg, combination 25 + 25 mg/kg, n = 17, control 4.94 ± 1.41): 2.12 ± 0.87 per Stomach
DRUG EFFECT on mean ulcer score ([7]; Day 6, 200 mg/kg oral): -80%
Established ulcer score, individual animal (area in cm^2, + 2.0 for perforation) ([7]; Day 6, 200 mg/kg oral once daily, * = perforation, 200 mg/kg): 1.2 and 5.75 and 0.72 and 0.8 and 0.5 and 0.3 and 0.56 and 1.4 and 0.90 and 1.44
MEAN SCORE, established ulcers ([7]; Day 6, 200 mg/kg oral, controls 3.03 ± 0.73 (sucralfate study, not significant), 4.12 ± 0.67 (Compound III:Al study, P < 0.001)): 0.82 ± 0.13
DRUG EFFECT on mean ulcer area ([7]; day six, 200 mg/kg oral): -65%
Established ulcer area, MEAN ([7]; day six, 200 mg/kg oral, controls 2.14 ± 0.43 (sucralfate, P < 0.1), 2.32 ± 0.61 (Compound III:Al, P < 0.05)): 0.82 ± 0.13 CM^2
Perforation As Percent ([7]; pooled, 200 mg/kg, control 50, Compound III:Al P < 0.001 vs control and vs sucralfate): 0%
Perforation Frequency ([7]; pooled, 200 mg/kg, days five and six, control 26/52): 0/49
dissolution of suspension in acid [8]: still not all dissolved
change in focal lesions versus control [9]: -100%
Focal Lesions per Stomach ([9]; n = 6, control 4.17 ± 1.58, p<0.05): 0.00 per Stomach
HCl needed to lower pH of suspension to below pH 2.00 ([10]; 50 mg in 20 ml distilled water, initial pH 4.44 (aluminum trihydroxide), 4.91 (sucralfate), 4.23 (Compound III:Al), water alone 0.30): 1.2 meq
buffering action, in words ([10]; HCl titration): better dissolution-and-buffering action between pH 4.5 and 2.0 than either aluminum trihydroxide or sucralfate; also recorded: no buffering power whatsoever at this pH value
Relative Buffering Power between pH 4.5 and 2.0 ([10]; sucralfate = 1): 11

More lines, main results first:

IC50 [3]: 1000 nM
Compound: CC1(C)O[C@H]2O[C@H]([C@H](O)COP(=O)(O)O)[C@H](OP(=O)(O)O)[C@H]2O1 [Compound VI, 1,2-O-(2-Propylidene)-3,6-di-O-phospho-α-D-glucofuranose, tetrapotassium salt]
expressions of cytotoxicity in neutrophils by microscopic examination [1]: diffuse toxic granularity in the cells
Post-ischemic reperfusion 30 minute paw swelling, Mn ± SE ([2]; control 18.4 ± 0.54, P < 0.02): 9.1 ± 0.27 0.1 mm
Swelling change as a result of treatment ([2]; 30 minutes): -50%
inhibition at 1 µg/mL ([3]; dose 1.0 μg/ml): 44%
inhibition at 10 µg/mL [3]: 85%
Percent Inhibition of chemotaxis ([3]; dose 1.0 μg/ml): 47.0%

IC50 [3]: > 50000 nM
Compound: CC(C)Cc1ccc(C(C)C(=O)O)cc1 (stereo not drawn) [Ibuprofen, reference compound]
reduction in swelling [4]: 24%
inhibition at 0.1 µg/mL [3]: 17.5%
inhibition at 1 µg/mL ([3]; dose 1.0 μg/ml): 9.3%
inhibition at 10 µg/mL [3]: 35.5%

IC50 [3]: 3000 nM
Compound: CCCN(CCC)S(=O)(=O)c1ccc(C(=O)O)cc1 [Probenecid, reference compound]
expressions of cytotoxicity in neutrophils by microscopic examination [1]: stringy, elongated deformation in the neutrophils
inhibition at 0.1 µg/mL [3]: 5.5%
inhibition at 1 µg/mL ([3]; dose 1.0 μg/ml): 59.5%
inhibition at 10 µg/mL [3]: 89.5%

effect on blood coagulation, in words [11]: uncoagulatable after 60 minutes
Compound: Heparin
